Results taken from patent US20130109854A1, “Novel Methods for Preparation of (+)-1-ethyl-4-[2-(4-morpholinyl)ethyl)-3,3-diphenyl-2-pyrrolidinone and Salts Thereof” (priority 2011, published 2013).

How the values were obtained:
[1] = Stimulating ventilation or reversing respiratory depression (respiratory stimulant activity); assay type: in vivo; conditions: compared with racemic doxapram
[2] = cited from earlier work
[3] = Acute side effects in animals; assay type: in vivo; conditions: compared with racemic doxapram or a salt thereof

CCN1CC(CCN2CCOCC2)C(c2ccccc2)(c2ccccc2)C1=O (single isomer, unassigned; (-)) [(−)-doxapram]
activity in stimulating ventilation or reversing respiratory depression (desired beneficial pharmacological activity of racemic doxapram) [1]: essentially devoid of activity

CCN1CC(CCN2CCOCC2)C(c2ccccc2)(c2ccccc2)C1=O (racemic) [doxapram]
tidal volume and respiratory rate ([2]; administered intravenously): increase | effect on stimulating respiration (breathing) ([2]; animals, Ward & Franko, 1962): strong, dose-dependent effect

CCN1C[C@H](CCN2CCOCC2)C(c2ccccc2)(c2ccccc2)C1=O [(+)-doxapram, (+)-4-(2-(1-ethyl-5-oxo-4,4-diphenylpyrrolidin-3-yl)ethyl)morpholine]
activity in stimulating ventilation or reversing respiratory depression (desired beneficial pharmacological activity of racemic doxapram) [1]: most or all the desired beneficial pharmacological activity associated with the racemic doxapram | adverse side effects compared to administration of racemic doxapram [3]: significantly reduced adverse side effects
